Data: patent US12102633B2, “Spirolactone compounds” (Quixgen, Inc., priority 2017, dated 2024)
pIC50: −log10 of the molar value. “Also recorded” adds a separate entry of the source.

Experiments:
3T3-L1 adipocytes = assay: Lipogenesis of 3T3-L1 adipocytes; assay type: cell-based; conditions: Mus musculus, TG readout, read-out: LG-3T3 IC50
Protocol: 3T3-L1 fibroblast cells (Zen-Bio) were grown in 96-well culture microplate (Corning) with growth media to around 90-100% confluency. Culture media was changed to differentiation media (growth media supplemented with 3-Isobutyl-1-Methylxanthine 500 μM, Dexamethasone 1 μM, insulin 10 μg/mL, and rosiglitazone 2 μM) plus serially diluted compounds prepared in DMSO (1:1000 dilution). After incubation for 2 days, media was changed to maintenance media (growth media supplemented with insulin 10 μg/mL) plus serially diluted compounds prepared in DMSO (1:1000 dilution) for around 1 week with media changed every 2 days. Upon completion of the treatment, culture media are discarded and 200 μL 0.01% SDS was added to each well and shaken for 1 hour to lyse the cells. Cell lysates were then transferred to 400 μL Folch's solution (chloroform: methanol=2:1) and mixed well. After centrifuge at 2,000 rpm for 20 min, 200 μL of the lower organic phase was transferred to a plate with 10 μL sample buffer (chloroform:Triton-100=3:1). Samples were blown dried under nitrogen and 200 μL triglyceride (TG) quantification reagent (Thermo Fisher Scientific) was added, mixed, and incubated at 37° C. for 30 min. TG concentration was determined by reading absorbance at 535 nm (Dynex MRX^e Magellan Biosciences) and calculated from standard curve.

[1] = tested on: T1, Mouse ACC (ACC protein purified from liver); assay: Mouse ACC enzymatic activity assay; assay type: biochemical; conditions: read-out: EA-CoA mACC IC50
T1 construct: ACC protein was purified by taking advantage of the biotinylation in the carboxylase domain
Protocol: ACC protein was purified by taking advantage of the biotinylation in the carboxylase domain. Male C57BL/6J mice (Jackson Laboratory) at 8-12 weeks of age were euthanized by using CO2 inhalation method and liver was immediately frozen on dry ice. To 100 mg liver was added 1 mL ice-cold tissue lysis buffer (20 mM Tris-HCl pH 7.5, 150 mM NaCl, 1 mM Na2EDTA, 1 mM EGTA, 1% Triton, 2.5 mM sodium pyrophosphate, 1 mM 3-glycerophosphate, 1 mM Na3VO4, 1 μg/mL leupeptin, 1 tablet of protease inhibitor cocktail (Roche) per 10 mL lysis buffer) followed by homogenization on ice with Power Gen 125 homogenizer (Fisher Scientific). After 30 min incubation on ice, tissue lysate was passed through a 10 mL syringe with 18½ G needle for 10 times to shear DNA. The lysate was then subject to 17.5%-35% saturated ammonium sulfate precipitation by adding 880 mg ammonium sulfate powder (Sigma) to 10 mL liver lysate in 10 min with stirring on ice. Sample was centrifuged at 14,000 rpm (Eppendorf) at 4° C. for 10 min and supernatant was saved for further precipitation by adding 880 mg ammonium sulfate powder to 10 ml supernatant in 10 min with stirring on ice. Sample was centrifuged at 14,000 rpm at 4° C. for 10 min. Supernatant was discarded and pellet was dissolved in 10 mL sample buffer (100 mM Tris-HCl, pH 7.5, 1 mM EDTA, 0.1 mM DTT, 0.5 M NaCl, and 5% glycerol). The sample was then added with 1 mL of Strep Mag beads slurry (Genscript) and rotated at 4° C. for 1 hour. Supernatant was discarded and beads were washed with sample buffer for 3 times. Protein was then eluted by adding 10 mL of 2 mM biotin (Promega) prepared in sample buffer. The eluate was then dialyzed at 4° C. for 1 hour by using Slide-A-Lyzer™ Dialysis Cassettes 10K MWCO (Thermo Fisher Scientific) against 3 changes of 200 mL dialysis buffer (50 mM HEPES, pH 7.5, 0.1 mM DTT, 1.0 mM EDTA, and 10% glycerol). Total protein concentration was then quantitated by using BCA protein assay kit (Pierce).
For ACC enzymatic activity assay, 1 μL serial diluted compounds prepared in DMSO in duplicate were mixed with 8 μL dialyzed sample at 37° C. for 10 min. Ninety one L of reaction buffer (50 mM HEPES pH 7.5, 10 mM MgCl2, 2.0 mM DTT, 0.5 mM acetyl-CoA, 4.0 mM ATP, 15 mM ^13C-NaHCO3, 0.75 mg/mL BSA, 0.5 mM sodium citrate) was added to the tube and mixed thoroughly. After incubation at 37° C. for 1 hour, 300 μl ice-cold quenching buffer (acetonitrile:methanol=1:1, 20 μM carbutamide as internal standard) was added to each tube and mixed well to terminate the reaction. Samples were centrifuged at 14,000 rpm for 10 min (Eppendorf) and supernatant was loaded onto LC-MS/MS for quantitation of malonyl-^13C-CoA (Gao et al., Journal of chromatography B, Analytical technologies in the biomedical and life sciences 853, 303-313 (2007)).
Shimadzu LC system was used for sample analysis consisting of system controller (Shimadzu CBM-20A), autosampler (Shimadzu SIL-20A), pump A and B (Shimadzu LC-20AD), column oven (Shimadzu CTO-20A), and analytical column (Phenomenex Gemini 5u C18 11A, 100×2 mm). LC was running at 200 μL/min in the binary gradient mode with mobile phase A (5 mM Ammonium Acetate and 5 mM DMBA in water (1,3-Dimethylbutylamine)) and B (methanol). The samples were analyzed on an AB Sciex QTrap4000 LC-MS/MS triple quadrupole mass spectrometer (Applied Biosystems). Malonyl-CoA and malonyl-13C-CoA were monitored in positive ion mode following MRM transitions at 854.2/347.1 and 855.1/246.1, respectively. The product and internal standard were coeluted to the mass spectrometer in 3 s with 50% H2O, 25% MeCN, 25% acetone, and 5 mM ammonium acetate. Ion chromatograms were integrated using the Analyst 1.5.2 software. Peak area ratios were compared against a standard curve and final cellular concentration of malonyl-CoA or production rate of malonyl-13C-CoA was calculated as pmoles/mg protein per minute.

Human sebocytes = assay: Proliferation of human sebocytes; assay type: cell-based; conditions: 24 hours, MTT, read-out: AP-Sebo IC50
Protocol: Human sebocytes (Celprogen) and keratinocytes (ATCC) were grown in 96-well culture microplate (Coming) with growth media to around 50% confluency. Media was changed to growth media mixed with serially diluted compounds in DMSO (1:1000 dilution). After treatment for 24 hours, media was changed to 100 μL phenol red free DMEM and cell numbers were quantitated by using Vybrant® MTT Cell Proliferation Assay Kit (Molecular Probes). Ten μL of 12 mM MTT stock solution was added to each well and the microplate was incubated at 37° C. for 4 hours. Then 100 μL of the SDS-HCl solution was added to each well and mixed thoroughly using a pipette. The microplate was incubated at 37° C. for 4 hours in a cell culture incubator. The microplate was mixed again using a pipette and absorbance was read at 570 nm (Dynex MRX^e Magellan Biosciences). Effect of compounds on proliferation of human keratinocytes was calculated by % of DMSO vehicle control.

[2] = PK study in male C57 mouse for Examples 14 and 15; assay type: in vivo; conditions: for concentration at 0.5 h: 0.50 h
Protocol: Pharmacokinetic studies were carried out with male C57 mouse. Compounds (Example 14 and Example 15) were each formulated in 5% DMSO+10% Solutol HS 15+85% Saline, and dosed at 1 mpk for IV injection (5 mL/kg) and 10 mpk for oral gavage (10 mUkg). Plasma samples at various time points were quantitated with LC-MS. Data reported were average of three mice.
Tables 1 and 2 below show plasma concentrations (ng/mL) and PK parameters of Example 14 in male C57 mouse after 1 mpk IV injection and 10 mpk PO gavage, respectively. The plasma concentration (ng/mL) of the acid compound, Example 15, was also measured and reported below.
Tables 3 and 4 below show plasma concentrations (ng/mL) and PK parameters of Example 15 in male C57 mouse after 1 mpk IV injection and 10 mpk PO gavage, respectively.

[3] = tested on: liver triglycerides (TG) in C57BL/6J mice; assay: Chronic treatment for reducing liver triglycerides in C57BL/6J mice; assay type: in vivo, mouse; conditions: male C57BL/6J mice; 30 mg per kilogram body weight in PEG400, oral gavage once per day for 2 weeks; FIG. 1, vs vehicle
Protocol: Male C57BL/6J mice (Jackson Laboratory) at around 9 weeks of age were treated with vehicle (0.5% methylcellulose or PEG400) or Example 14 (30 mg per kilogram body weight, dosing solution prepared in PEG400) and Example 20 (20 mg per kilogram body weight, dosing solution prepared in 0.5% methylcellulose) by oral gavage at ˜9:00 am, once per day for 2 weeks. Concentrations of Example 14 and Example 20 were 15 mg/ml and 2 mg/ml, respectively. The dosing volumes of Example 14 and Example 20 were 2 ml per kilogram body weight and 10 ml per kilogram body weight, respectively. After 14-day treatment, animals were euthanized in CO2 at 2 hours post dose and liver was frozen and kept on dry ice. Liver TG was measured by extracting lipids with chloroform:methanol 2:1 (v/v) followed by quantitation with Infinity™ Triglycerides Reagent (Thermo Scientific).

[4] = male, C57, mouse, plasma, iv, 1 mg/kg, Example 14 dosed 1 mpk IV, analyte = labelled compound
[5] = male, C57, mouse, plasma, po, 10 mg/kg, Example 14 dosed 10 mpk PO gavage, analyte = labelled compound
[6] = plasma, 1 mg/kg, Example 14 dosed 1 mpk IV

**Q.** Which results are given for CCc1ccc2c(c1)C(=O)OC1(CCN(C(=O)c3cc(OC)c4cccc(OC)c4n3)CC1)C2 [Example 4, 1′-(4,8-dimethoxyquinoline-2-carbonyl)-7-ethylspiro[isochroman-3,4′-piperidin]-1-one]?
**A.** pIC50 (3T3-L1 adipocytes): 7.56; pIC50 [1]: 7.95; pIC50 (Human sebocytes): 6.83

**Q.** What does the source list for COC(=O)c1cncc(-c2ccc3c(c2)C(=O)OC2(CCN(C(=O)c4cc(OC)c5cccc(OC)c5n4)CC2)C3)c1 [Example 14, methyl 5-(1′-(4,8-dimethoxyquinoline-2-carbonyl)-1-oxospiro[isochroman-3,4′-piperidin]-7-yl)nicotinate]?
**A.** Plasma Concentration, Mean ([2]; Example 14 dosed 1 mpk IV, 8.00 h, analyte = labelled compound): BLQ; Plasma Concentration, Mean ([2]; Example 14 dosed 1 mpk IV, 24.00 h, analyte = labelled compound): BLQ; F ([2]; Example 14 dosed 10 mpk PO gavage): 88%; Plasma Concentration, Mean ([2]; Example 14 dosed 10 mpk PO gavage, 24.00 h, analyte = labelled compound): BLQ; MRT ([2]; male, C57, mouse, plasma, iv, 1 mg/kg, Example 14 dosed 1 mpk IV): 24.6 min; concentration at 0.08 h ([2]; male, C57, mouse, plasma, iv, 1 mg/kg, Example 14 dosed 1 mpk IV, 0.08 h, analyte = labelled compound): 1880 ng/mL; concentration at 0.25 h [2, 4]: 1080 ng/mL; concentration at 0.5 h [2, 4]: 521 ng/mL; concentration at 1 h [2, 4]: 199 ng/mL; concentration at 2 h [2, 4]: 30 ng/mL; concentration at 4 h [2, 4]: 4.4 ng/mL; concentration at 0.25 h [2, 5]: 3660 ng/mL; concentration at 0.5 h [2, 5]: 5970 ng/mL; concentration at 1 h [2, 5]: 3160 ng/mL; concentration at 2 h [2, 5]: 1010 ng/mL; concentration at 4 h [2, 5]: 345 ng/mL; concentration at 8 h ([2]; male, C57, mouse, plasma, po, 10 mg/kg, Example 14 dosed 10 mpk PO gavage, 8.00 h, analyte = labelled compound): 125 ng/mL; Cmax [2, 5]: 6330 ng/mL; MRT [2, 5]: 96 min; Tmax [2, 5]: 25.2 min; Vd [2, 6]: 0.49 L/kg; clearance [2, 6]: 18.5 mL/min/kg; half-life [2, 6]: 19.2 min; Liver TG [3]: reduced liver triglycerides; also recorded: reduced liver TG

**Q.** Which results are given for CCc1ccc2c(c1)C(=O)OC1(CCN(C(=O)c3cc(OC)c4cccc(OC)c4c3)CC1)C2 [Example 3, 1′-(4,8-dimethoxy-2-naphthoyl)-7-ethylspiro[isochroman-3,4′-piperidin]-1-one]?
**A.** pIC50 (3T3-L1 adipocytes): 8.85; pIC50 [1]: 8.47; pIC50 (Human sebocytes): 7.35
